Test results published in ChEMBL document CHEMBL1909046, “DrugMatrix in vitro pharmacology data”.

target: Protein kinase C alpha type (Homo sapiens, UniProt P17252); assay type: cell-based; conditions: sf9;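 further: inhibition of PKCalpha kinase activity measured in an enzyme assay with histone as the phosphorylation substrate; in other assays of this panel Not Active means under 50% inhibition at 10 µM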

Structure (SMILES)	IC50
COCCOC(=O)C1=C(C)NC(C)=C(C(=O)OC(C)C)C1c1cccc([N+](=O)[O-])c1 (configuration not stated) [NIMODIPINE]	Not Active
CC(C)NCC(O)COc1cccc2ccccc12 (configuration not stated) [PROPRANOLOL]	Not Active
O=C(c1ccc(OCCN2CCCCC2)cc1)c1c(-c2ccc(O)cc2)sc2cc(O)ccc12 [RALOXIFENE]	Not Active
CC(C)c1nc(CN(C)C(=O)N[C@H](C(=O)N[C@@H](Cc2ccccc2)C[C@H](O)[C@H](Cc2ccccc2)NC(=O)OCc2cncs2)C(C)C)cs1 [RITONAVIR]	Not Active
Cc1cc(C)nc(NS(=O)(=O)c2ccc(N)cc2)n1 [SULFAMETHAZINE]	Not Active
C[C@]1(Cn2ccnn2)[C@H](C(=O)O)N2C(=O)C[C@H]2S1(=O)=O [TAZOBACTAM]	Not Active
CC(=O)CC(c1ccccc1)c1c(O)c2ccccc2oc1=O (configuration not stated) [WARFARIN]	Not Active
[Cl-].[Cl-].[Zn+2] [ZINC CHLORIDE]	Not Active

target: Estrogen receptor beta (Homo sapiens, UniProt Q92731); conditions: sf9; further: in other assays of this panel Not Active means under 50% inhibition at 10 µM
Sequence (Q92731 whole entry): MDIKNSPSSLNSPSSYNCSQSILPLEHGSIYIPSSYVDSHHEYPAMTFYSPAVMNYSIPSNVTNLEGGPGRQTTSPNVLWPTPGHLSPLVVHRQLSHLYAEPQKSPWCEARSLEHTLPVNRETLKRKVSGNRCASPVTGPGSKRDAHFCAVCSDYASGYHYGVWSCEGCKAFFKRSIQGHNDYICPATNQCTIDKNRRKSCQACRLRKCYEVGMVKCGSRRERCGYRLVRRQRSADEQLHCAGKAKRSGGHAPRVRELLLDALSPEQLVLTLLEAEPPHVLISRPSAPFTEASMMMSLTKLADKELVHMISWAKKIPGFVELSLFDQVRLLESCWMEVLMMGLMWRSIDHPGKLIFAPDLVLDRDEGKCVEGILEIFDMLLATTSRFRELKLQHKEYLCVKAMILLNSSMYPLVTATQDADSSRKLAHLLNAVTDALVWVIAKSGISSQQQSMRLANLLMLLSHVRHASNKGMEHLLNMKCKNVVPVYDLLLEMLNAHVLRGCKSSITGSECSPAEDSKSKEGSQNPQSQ

Structure (SMILES)	IC50
CC(C)NCC(O)COc1cccc2ccccc12 (configuration not stated) [PROPRANOLOL]	Not Active
O=C(c1ccc(OCCN2CCCCC2)cc1)c1c(-c2ccc(O)cc2)sc2cc(O)ccc12 [RALOXIFENE]	Not Active
CC(C)c1nc(CN(C)C(=O)N[C@H](C(=O)N[C@@H](Cc2ccccc2)C[C@H](O)[C@H](Cc2ccccc2)NC(=O)OCc2cncs2)C(C)C)cs1 [RITONAVIR]	Not Active

target: Mitogen-activated protein kinase 1 (Homo sapiens, UniProt P28482); experiment: DRUGMATRIX: Protein Serine/Threonine Kinase, ERK2 enzyme inhibition (substrate: Myelin Basic Protein); parameters: species or system Escherichia coli; conditions: Not Active = under 50% inhibition at 10 µM
Sequence (P28482 whole entry): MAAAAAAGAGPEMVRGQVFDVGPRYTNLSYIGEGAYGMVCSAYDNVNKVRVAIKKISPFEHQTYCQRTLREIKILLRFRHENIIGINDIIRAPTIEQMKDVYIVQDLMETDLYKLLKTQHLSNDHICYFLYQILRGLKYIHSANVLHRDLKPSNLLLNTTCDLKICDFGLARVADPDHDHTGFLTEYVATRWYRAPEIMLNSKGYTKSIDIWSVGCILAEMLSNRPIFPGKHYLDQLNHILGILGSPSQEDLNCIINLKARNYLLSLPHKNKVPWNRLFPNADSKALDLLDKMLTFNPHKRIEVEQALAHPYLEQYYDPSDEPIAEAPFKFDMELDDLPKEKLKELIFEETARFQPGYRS

Structure (SMILES)	IC50
COCCOC(=O)C1=C(C)NC(C)=C(C(=O)OC(C)C)C1c1cccc([N+](=O)[O-])c1 (configuration not stated) [NIMODIPINE]	Not Active
CC(C)NCC(O)COc1cccc2ccccc12 (configuration not stated) [PROPRANOLOL]	Not Active
O=C(c1ccc(OCCN2CCCCC2)cc1)c1c(-c2ccc(O)cc2)sc2cc(O)ccc12 [RALOXIFENE]	Not Active
CC(C)c1nc(CN(C)C(=O)N[C@H](C(=O)N[C@@H](Cc2ccccc2)C[C@H](O)[C@H](Cc2ccccc2)NC(=O)OCc2cncs2)C(C)C)cs1 [RITONAVIR]	Not Active
Cc1cc(C)nc(NS(=O)(=O)c2ccc(N)cc2)n1 [SULFAMETHAZINE]	Not Active
C[C@]1(Cn2ccnn2)[C@H](C(=O)O)N2C(=O)C[C@H]2S1(=O)=O [TAZOBACTAM]	Not Active
CC(=O)CC(c1ccccc1)c1c(O)c2ccccc2oc1=O (configuration not stated) [WARFARIN]	Not Active
[Cl-].[Cl-].[Zn+2] [ZINC CHLORIDE]	Not Active

test system: not listed separately; experiment: DRUGMATRIX: Glutamate, NMDA, Phencyclidine radioligand binding (ligand: [3H] TCP); assay type: cell membranes, Rattus norvegicus, Wistar, Cerebral cortex, Membrane; conditions: Not Active = under 50% inhibition at 10 µM

Structure (SMILES)	IC50	Ki
COCCOC(=O)C1=C(C)NC(C)=C(C(=O)OC(C)C)C1c1cccc([N+](=O)[O-])c1 (configuration not stated) [NIMODIPINE]	Not Active	Not Active
O=C(c1ccc(OCCN2CCCCC2)cc1)c1c(-c2ccc(O)cc2)sc2cc(O)ccc12 [RALOXIFENE]	Not Active	Not Active
CC(C)c1nc(CN(C)C(=O)N[C@H](C(=O)N[C@@H](Cc2ccccc2)C[C@H](O)[C@H](Cc2ccccc2)NC(=O)OCc2cncs2)C(C)C)cs1 [RITONAVIR]	Not Active	Not Active
Cc1cc(C)nc(NS(=O)(=O)c2ccc(N)cc2)n1 [SULFAMETHAZINE]	Not Active	Not Active
C[C@]1(Cn2ccnn2)[C@H](C(=O)O)N2C(=O)C[C@H]2S1(=O)=O [TAZOBACTAM]	Not Active	Not Active
CC(=O)CC(c1ccccc1)c1c(O)c2ccccc2oc1=O (configuration not stated) [WARFARIN]	Not Active	Not Active
[Cl-].[Cl-].[Zn+2] [ZINC CHLORIDE]	Not Active	Not Active

target: Delta-type opioid receptor (Homo sapiens, UniProt P41143); assay type: cell membranes, HEK293, Membrane; conditions: hek293; further: in other assays of this panel Not Active means under 50% inhibition at 10 µM
Sequence (P41143 whole entry): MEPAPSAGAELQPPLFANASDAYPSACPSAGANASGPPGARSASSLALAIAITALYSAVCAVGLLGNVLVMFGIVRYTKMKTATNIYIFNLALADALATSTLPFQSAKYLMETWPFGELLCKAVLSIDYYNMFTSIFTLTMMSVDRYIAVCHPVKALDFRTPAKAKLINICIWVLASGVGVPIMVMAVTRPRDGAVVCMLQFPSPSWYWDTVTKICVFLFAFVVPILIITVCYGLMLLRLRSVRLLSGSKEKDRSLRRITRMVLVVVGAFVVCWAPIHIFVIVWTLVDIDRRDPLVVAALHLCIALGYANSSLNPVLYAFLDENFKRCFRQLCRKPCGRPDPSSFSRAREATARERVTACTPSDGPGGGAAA

Structure (SMILES)	IC50
COCCOC(=O)C1=C(C)NC(C)=C(C(=O)OC(C)C)C1c1cccc([N+](=O)[O-])c1 (configuration not stated) [NIMODIPINE]	Not Active
CC(C)NCC(O)COc1cccc2ccccc12 (configuration not stated) [PROPRANOLOL]	Not Active
CC(C)c1nc(CN(C)C(=O)N[C@H](C(=O)N[C@@H](Cc2ccccc2)C[C@H](O)[C@H](Cc2ccccc2)NC(=O)OCc2cncs2)C(C)C)cs1 [RITONAVIR]	Not Active
Cc1cc(C)nc(NS(=O)(=O)c2ccc(N)cc2)n1 [SULFAMETHAZINE]	Not Active
C[C@]1(Cn2ccnn2)[C@H](C(=O)O)N2C(=O)C[C@H]2S1(=O)=O [TAZOBACTAM]	Not Active
CC(=O)CC(c1ccccc1)c1c(O)c2ccccc2oc1=O (configuration not stated) [WARFARIN]	Not Active
[Cl-].[Cl-].[Zn+2] [ZINC CHLORIDE]	Not Active

target: C-C chemokine receptor type 2 (Homo sapiens, UniProt P41597); assay type: cell membranes, CHO-K1, Membrane; conditions: cho-k1; further: in other assays of this panel Not Active means under 50% inhibition at 10 µM
Sequence (P41597 whole entry): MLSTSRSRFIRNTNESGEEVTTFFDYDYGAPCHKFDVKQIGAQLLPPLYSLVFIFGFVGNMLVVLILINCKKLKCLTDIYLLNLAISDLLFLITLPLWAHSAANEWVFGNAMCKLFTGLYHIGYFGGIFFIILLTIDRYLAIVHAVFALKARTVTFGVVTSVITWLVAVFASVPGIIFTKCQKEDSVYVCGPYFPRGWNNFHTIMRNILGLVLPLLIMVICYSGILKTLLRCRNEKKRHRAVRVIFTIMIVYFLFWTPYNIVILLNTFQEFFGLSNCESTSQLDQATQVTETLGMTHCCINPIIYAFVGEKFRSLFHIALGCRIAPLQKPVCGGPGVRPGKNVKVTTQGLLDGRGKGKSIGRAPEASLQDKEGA

Structure (SMILES)	IC50	Ki
COCCOC(=O)C1=C(C)NC(C)=C(C(=O)OC(C)C)C1c1cccc([N+](=O)[O-])c1 (configuration not stated) [NIMODIPINE]	Not Active	–
CC(C)NCC(O)COc1cccc2ccccc12 (configuration not stated) [PROPRANOLOL]	Not Active	–
O=C(c1ccc(OCCN2CCCCC2)cc1)c1c(-c2ccc(O)cc2)sc2cc(O)ccc12 [RALOXIFENE]	Not Active	–
CC(C)c1nc(CN(C)C(=O)N[C@H](C(=O)N[C@@H](Cc2ccccc2)C[C@H](O)[C@H](Cc2ccccc2)NC(=O)OCc2cncs2)C(C)C)cs1 [RITONAVIR]	Not Active	–
Cc1cc(C)nc(NS(=O)(=O)c2ccc(N)cc2)n1 [SULFAMETHAZINE]	–	Not Active
C[C@]1(Cn2ccnn2)[C@H](C(=O)O)N2C(=O)C[C@H]2S1(=O)=O [TAZOBACTAM]	Not Active	–
CC(=O)CC(c1ccccc1)c1c(O)c2ccccc2oc1=O (configuration not stated) [WARFARIN]	Not Active	–
[Cl-].[Cl-].[Zn+2] [ZINC CHLORIDE]	Not Active	–

test system: not listed separately; experiment: DRUGMATRIX: Platelet-Derived Growth Factor (PDGF) radioligand binding (ligand: [125I] PDGF); assay type: cell-based; conditions: nih3t3; Not Active = under 50% inhibition at 10 µM

Structure (SMILES)	IC50	Ki
COCCOC(=O)C1=C(C)NC(C)=C(C(=O)OC(C)C)C1c1cccc([N+](=O)[O-])c1 (configuration not stated) [NIMODIPINE]	Not Active	Not Active
O=C(c1ccc(OCCN2CCCCC2)cc1)c1c(-c2ccc(O)cc2)sc2cc(O)ccc12 [RALOXIFENE]	Not Active	Not Active
CC(C)c1nc(CN(C)C(=O)N[C@H](C(=O)N[C@@H](Cc2ccccc2)C[C@H](O)[C@H](Cc2ccccc2)NC(=O)OCc2cncs2)C(C)C)cs1 [RITONAVIR]	Not Active	Not Active
Cc1cc(C)nc(NS(=O)(=O)c2ccc(N)cc2)n1 [SULFAMETHAZINE]	Not Active	Not Active
C[C@]1(Cn2ccnn2)[C@H](C(=O)O)N2C(=O)C[C@H]2S1(=O)=O [TAZOBACTAM]	Not Active	Not Active
CC(=O)CC(c1ccccc1)c1c(O)c2ccccc2oc1=O (configuration not stated) [WARFARIN]	Not Active	Not Active
[Cl-].[Cl-].[Zn+2] [ZINC CHLORIDE]	Not Active	Not Active

test system: not listed separately; experiment: DRUGMATRIX: Atrial Natriuretic Factor (ANF) radioligand binding (ligand: [125I] ANF (rat)); assay type: cell membranes, Cavia porcellus, Dunkin-Hartley, Adrenal gland, Membrane; conditions: Not Active = under 50% inhibition at 10 µM

Structure (SMILES)	IC50	Ki
COCCOC(=O)C1=C(C)NC(C)=C(C(=O)OC(C)C)C1c1cccc([N+](=O)[O-])c1 (configuration not stated) [NIMODIPINE]	Not Active	Not Active
O=C(c1ccc(OCCN2CCCCC2)cc1)c1c(-c2ccc(O)cc2)sc2cc(O)ccc12 [RALOXIFENE]	Not Active	Not Active
CC(C)c1nc(CN(C)C(=O)N[C@H](C(=O)N[C@@H](Cc2ccccc2)C[C@H](O)[C@H](Cc2ccccc2)NC(=O)OCc2cncs2)C(C)C)cs1 [RITONAVIR]	Not Active	Not Active
Cc1cc(C)nc(NS(=O)(=O)c2ccc(N)cc2)n1 [SULFAMETHAZINE]	Not Active	Not Active
C[C@]1(Cn2ccnn2)[C@H](C(=O)O)N2C(=O)C[C@H]2S1(=O)=O [TAZOBACTAM]	Not Active	Not Active
CC(=O)CC(c1ccccc1)c1c(O)c2ccccc2oc1=O (configuration not stated) [WARFARIN]	Not Active	Not Active
[Cl-].[Cl-].[Zn+2] [ZINC CHLORIDE]	Not Active	Not Active

target: Glycine receptor (Rattus norvegicus, UniProt P22771+P24524+P07727+P20781); assay type: cell membranes, Wistar, Spinal cord, Membrane; conditions: not given; further: in other assays of this panel Not Active means under 50% inhibition at 10 µM

Structure (SMILES)	IC50
COCCOC(=O)C1=C(C)NC(C)=C(C(=O)OC(C)C)C1c1cccc([N+](=O)[O-])c1 (configuration not stated) [NIMODIPINE]	Not Active
CC(C)NCC(O)COc1cccc2ccccc12 (configuration not stated) [PROPRANOLOL]	Not Active
O=C(c1ccc(OCCN2CCCCC2)cc1)c1c(-c2ccc(O)cc2)sc2cc(O)ccc12 [RALOXIFENE]	Not Active
CC(C)c1nc(CN(C)C(=O)N[C@H](C(=O)N[C@@H](Cc2ccccc2)C[C@H](O)[C@H](Cc2ccccc2)NC(=O)OCc2cncs2)C(C)C)cs1 [RITONAVIR]	Not Active
Cc1cc(C)nc(NS(=O)(=O)c2ccc(N)cc2)n1 [SULFAMETHAZINE]	Not Active
C[C@]1(Cn2ccnn2)[C@H](C(=O)O)N2C(=O)C[C@H]2S1(=O)=O [TAZOBACTAM]	Not Active
CC(=O)CC(c1ccccc1)c1c(O)c2ccccc2oc1=O (configuration not stated) [WARFARIN]	Not Active
[Cl-].[Cl-].[Zn+2] [ZINC CHLORIDE]	Not Active

target: Kappa-type opioid receptor (Homo sapiens, UniProt P41145); experiment: DRUGMATRIX: Opiate kappa (OP2, KOP) radioligand binding (ligand: [3H] Diprenorphine); assay type: cell membranes, HEK293, Membrane; conditions: hek293; Not Active = under 50% inhibition at 10 µM
Sequence (P41145 whole entry): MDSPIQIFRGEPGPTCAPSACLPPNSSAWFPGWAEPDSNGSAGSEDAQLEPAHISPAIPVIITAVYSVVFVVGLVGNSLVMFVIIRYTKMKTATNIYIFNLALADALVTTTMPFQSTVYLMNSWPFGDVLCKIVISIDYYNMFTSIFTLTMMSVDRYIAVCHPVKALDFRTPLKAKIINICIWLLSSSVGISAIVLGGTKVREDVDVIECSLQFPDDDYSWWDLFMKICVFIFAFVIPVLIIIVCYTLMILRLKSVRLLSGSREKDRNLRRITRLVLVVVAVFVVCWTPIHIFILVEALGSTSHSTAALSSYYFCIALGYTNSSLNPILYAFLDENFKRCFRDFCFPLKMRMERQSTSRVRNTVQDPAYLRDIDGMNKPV

Structure (SMILES)	IC50
COCCOC(=O)C1=C(C)NC(C)=C(C(=O)OC(C)C)C1c1cccc([N+](=O)[O-])c1 (configuration not stated) [NIMODIPINE]	Not Active
CC(C)NCC(O)COc1cccc2ccccc12 (configuration not stated) [PROPRANOLOL]	Not Active
Cc1cc(C)nc(NS(=O)(=O)c2ccc(N)cc2)n1 [SULFAMETHAZINE]	Not Active
C[C@]1(Cn2ccnn2)[C@H](C(=O)O)N2C(=O)C[C@H]2S1(=O)=O [TAZOBACTAM]	Not Active
[Cl-].[Cl-].[Zn+2] [ZINC CHLORIDE]	Not Active

target: Mitogen-activated protein kinase 14 (Homo sapiens, UniProt Q16539); parameters: species or system Escherichia coli; conditions: not given
Sequence (Q16539 whole entry): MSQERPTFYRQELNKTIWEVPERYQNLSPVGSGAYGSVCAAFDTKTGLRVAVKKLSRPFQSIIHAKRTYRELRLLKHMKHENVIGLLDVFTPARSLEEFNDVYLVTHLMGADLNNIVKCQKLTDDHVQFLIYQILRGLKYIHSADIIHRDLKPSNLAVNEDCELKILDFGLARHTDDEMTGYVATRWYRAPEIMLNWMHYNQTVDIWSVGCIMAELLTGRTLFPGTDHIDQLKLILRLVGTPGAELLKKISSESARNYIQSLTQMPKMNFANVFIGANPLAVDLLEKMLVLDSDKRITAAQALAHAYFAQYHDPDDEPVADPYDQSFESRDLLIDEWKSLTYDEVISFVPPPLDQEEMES

Structure (SMILES)	IC50
COCCOC(=O)C1=C(C)NC(C)=C(C(=O)OC(C)C)C1c1cccc([N+](=O)[O-])c1 (configuration not stated) [NIMODIPINE]	Not Active
CC(C)NCC(O)COc1cccc2ccccc12 (configuration not stated) [PROPRANOLOL]	Not Active
O=C(c1ccc(OCCN2CCCCC2)cc1)c1c(-c2ccc(O)cc2)sc2cc(O)ccc12 [RALOXIFENE]	Not Active
CC(C)c1nc(CN(C)C(=O)N[C@H](C(=O)N[C@@H](Cc2ccccc2)C[C@H](O)[C@H](Cc2ccccc2)NC(=O)OCc2cncs2)C(C)C)cs1 [RITONAVIR]	Not Active
Cc1cc(C)nc(NS(=O)(=O)c2ccc(N)cc2)n1 [SULFAMETHAZINE]	Not Active
C[C@]1(Cn2ccnn2)[C@H](C(=O)O)N2C(=O)C[C@H]2S1(=O)=O [TAZOBACTAM]	Not Active
CC(=O)CC(c1ccccc1)c1c(O)c2ccccc2oc1=O (configuration not stated) [WARFARIN]	Not Active
[Cl-].[Cl-].[Zn+2] [ZINC CHLORIDE]	Not Active
